Test results published in US20220040255A1, “CHEMOTHERAPEUTIC REMODELING OF THE GUT MICROBIOME” (THE SCRIPPS RESEARCH INSTITUTE, priority 2018, published 2022).
Where a SMILES comes first, the peptide text is derived from it. [ ]: non-standard residue; d: D form.

Key:
[1] = system: gut microbiota from cecum of LDLr−/− mice; assay: in vitro en masse screening assay (cecum culture, 16S rRNA sequencing); type: cell-based; conditions: ranking in remodeling WD gut microbiota toward CHD microbiota composition
Protocol: We have established the following in vitro compound screening protocol for en masse gut microbiome remodeling. We obtain fresh gut microbiome content from LDLr^-/- mice conditioned for at least two weeks on WD by surgically removing cecum under anaerobic conditions. These samples are then mixed with growth media, distributed in 96-well plates, and incubated overnight in the presence of the test peptides. The activity and selectivity of each peptide for remodeling the gut microbiota community was assessed en masse by 16S rRNA sequencing of each well. A number of challenges had to be addressed in developing this protocol, including inoculum handling, choice of growth media, assay duration, etc. Our current assay culture condition maintains 50 bacterial genera (overnight culture), which is fairly representative of the 67 genera found in the uncultured community (Table 2). We used a distance scoring algorithm for a more refined compound selection, in which peptides that remodel the microbiota community most completely from the dysfunctional state (WD fed) toward the functional state (CHD fed) are scored higher. Briefly, we first eliminate cyclic D,L-α-peptides that have broad-spectrum antibacterial activity (inhibit >95% of growth of ≥25% of species in the community). The remaining compounds are then ranked based on how well they suppressed the bacterial species that grew in abundance in WD-fed mice. […] Among these, 40 genera decreased while 14 genera increased in abundance by WD feeding. Within the increased 11 genera, there were 19 bacterial species that were also present in our in vitro culture system. Accordingly, compounds were scored highly when they reduced the levels of 19 bacterial species (lowest summed differences in relative abundance) that were increased by WD feeding to be more similar to their levels in a CHD-fed microbiome (see Table 3 for peptide ranking). Based on these analyses, we chose two peptides for further in vivo validation and efficacy studies: the cationic peptide 1, […] NO:1), and the neutral peptide 11, […] NO:11), which ranked high within their respective peptide clusters. In vitro cecum culture and peptide screening. We screened a number of parameters to optimize the in vitro culture condition for maximal bacterial diversity in liquid culture, including a survey of several different growth media, dilution factors for plate inoculation, and incubation times; further details of the development of this in vitro screen will be reported elsewhere. Female LDLr^-/- mice (8-10 weeks of age) were fed a WD for two weeks. Cecum harvest and all assay steps were performed under anaerobic conditions (Coy Laboratory anaerobic chamber). Cecum contents from three mice were pooled for the assay to provide enough material and to minimize the individual variation in gut microbiome. Cecum contents were suspended in PBS (1.5 ml PBS per 100 mg of cecum content). The mixture was vortexed for 5 min and the supernatant was transferred to a new tube. The cecum content mixture was further diluted in Chopped Meat Carbohydrate Broth (BD 297307) for in vitro peptide screening. […] The concentration of peptide stock in DMSO was calculated based on A280 measurement. For each peptide, an initial 20 mM stock was made in DMSO and diluted to 1 mM in 10% sucrose. From that, a 0.64 mM peptide dilution in 10% sucrose was prepared, and each peptide was further diluted into the assay for peptide screening at two concentrations (64 μM and 16 μM). Bacterial DNA was harvested after 24-hour peptide treatment and isolated with Microbial DNA isolation kit (Mo Bio) following the manufacturer's instructions. 16S rRNA gene sequencing and processing. PCR amplicons of the V3-V4 16S rRNA region were amplified and sequenced using an Illumina MiSeq platform. […]

[2] = system: intestinal absorption of cholesterol; assay: fecal dual-isotope cholesterol absorption assay; type: in vivo, LDLr−/− mice; conditions: 180 μM in drinking water, 2-wk treatment, WD
Protocol: In vivo cholesterol absorption assay. This experiment was carried out courtesy of Carol S. Ryan, Debra J. Search, Ricardo A. Garcia, and David A. Gordon at Bristol Myers Squibb (Hopewell, N.J., USA). To assess the effects of c[wLwReQeR] (SEQ ID NO:11) on intestinal absorption of cholesterol, male LDLr^−/− mice (Jackson Laboratories) ranging from 8-10 weeks old were acclimated to single housing in standard solid bottom bedded cages for at least one week at BMS facilities. During the acclimation period, the mice were fed a chow diet ad libitum. At the start of the treatment period and for the duration of the study, mice were switched to high-fat, high-cholesterol Western diet (Research Diets D12108C) containing 1.25% cholesterol and 20% fat ad libitum. The peptide was administered in the drinking water ad libitum as a solution with 1% sucrose at 180 μM (˜35 mg/kg/day). […]
Following a 2-wk treatment period, cholesterol absorption was measured using a dual fecal isotope ratio method. […] Plasma (˜20 μl) was added to 5 ml of Opti-fluor Scintillation cocktail (Packard Bioscience #6013199) and counted on ^3H and ^14C channels to evaluate cholesterol efflux. Radioactivity in feces was analyzed as follows: for each animal, feces recovered over the 48 hours was dried overnight at 50° C. and 0.1 gram of dried feces was transferred to a glass tube. […]

Compound | ranked distance to chow [1] | absorption of dietary cholesterol [2]
CC(C)C[C@@H]1NC(=O)[C@@H](Cc2c[nH]c3ccccc23)NC(=O)[C@H](CCCCN)NC(=O)[C@@H](Cc2c[nH]cn2)NC(=O)[C@H](CO)NC(=O)[C@@H](Cc2c[nH]cn2)NC(=O)[C@H](CCCCN)NC(=O)[C@@H](Cc2c[nH]c3ccccc23)NC1=O [c[wLwKhShK]] (cyclo([dW]L[dW]K[dH]S[dH]K)) | 2 | 
CC(C)C[C@@H]1NC(=O)[C@@H](Cc2c[nH]c3ccccc23)NC(=O)[C@H](CCCNC(=N)N)NC(=O)[C@@H](CCC(=O)O)NC(=O)[C@H](CCC(N)=O)NC(=O)[C@@H](CCC(=O)O)NC(=O)[C@H](CCCNC(=N)N)NC(=O)[C@@H](Cc2c[nH]c3ccccc23)NC1=O [c[wLwReQeR]] (cyclo([dW]L[dW]R[dE]Q[dE]R)) | 14 | did not reduce
